Reference: US20070048367A1, “Herbal composition for treating morning sickness” (MOM Enterprises, Inc., priority 2005, published 2007)
Structures can show the parent of a compound that is named as a salt.

Tested on: morning sickness
Assay: Doctor survey: composition compared with other morning sickness remedies tried during the same pregnancy
Assay type: in vivo, pregnant patients
Settings: for Patients' preference, composition versus the named remedy: overall, in words
Description: Doctors across the United States were each sent four bottles of the composition described herein, and were invited to allow their pregnant patients to try the composition as a remedy for morning sickness. The same doctors were also sent a survey inquiring about the patients'experience with the composition, the other remedies used, and how the composition disclosed herein compared with the other remedies.
The survey also asked about other known morning sickness remedies. […] Some of the other remedies included Reglan® (metochlopramide, commercially available from Robins Co., Richmond, Va.), Emetrol® (dextrose, levulose, phosphoric acid, commercially available from Pfizer, Inc., New York, N.Y.), Mylanta® (calcium carbonate, magnesium hydroxide, commercially available from Johnson & Johnson, Merck Consumer Pharmaceuticals Co., Fort Washington, Pa.), Premesis Rx® (calcium carbonate, vitamin B12, folic acid, vitamin B6, commercially available from KV Pharmaceutical Co., St. Louis, Mo.), Compazine® (prochlorperazine, commercially available from SmithKline Beecham, Philadelphia, Pa.), and meclizine (commercially available under the tradename Antivert® from Pfizer, Inc., New York, N.Y.).
Regardless of whether they tried one or more remedies besides the disclosed composition, each doctor was asked, for each patient: did the composition work 1) better than other products or combinations, 2) better than some, but not as well as others, or 3) not as well as other products or combinations.
Another question in the survey asked the doctors what products each patient took besides the composition, and then whether the composition worked 1) better than other products or combinations, 2) better than some, but not as well as others, or 3) not as well as other products or combinations.

[1] = composition versus the named remedy, the two taken alone or with other remedies
[2] = patients who tried only the named remedy or combination besides the composition
[3] = composition versus the named remedy, the two taken alone or with other remedies, hydrochloride

| Structure (SMILES) | Percent of Patients for whom the Composition Did Not Work as Well [1] [%] | Percent of Patients for whom the Composition worked Better [1] [%] | Patients for whom the composition definitely worked better than the remedy/remedies tried in addition [2] | Patients' preference, composition versus the named remedy | further results |
| --- | --- | --- | --- | --- | --- |
| CN1CCN(CCCN2c3ccccc3Sc3ccc(Cl)cc32)CC1 [Compazine ®, prochlorperazine] | 29 | 43 | better for 3 patients | – | – |
| Cc1cccc(CN2CCN(C(c3ccccc3)c3ccc(Cl)cc3)CC2)c1 (stereo not drawn) [Meclizine ®, meclizine] | 0 | 100 | – | – | – |
| CC(CN1c2ccccc2Sc2ccccc21)N(C)C (stereo not drawn) [Phenergan ®, promethazine hydrochloride] | – | – | better for 4 patients | prefer | Percent of Patients for whom the Composition Did Not Work as Well [3]: 32%; Percent of Patients for whom the Composition worked Better [3]: 40% |
| CC(CN1c2ccccc2Sc2ccccc21)N(C)C (stereo not drawn) [Promethazine ®, Promethazine] | 100 | 0 | – | – | – |
| CCN(CC)CCNC(=O)c1cc(Cl)c(N)cc1OC [Reglan ®, metochlopramide] | 60 | 0 | – | – | – |
| Cc1ncc(CO)c(CO)c1O.Cl [Vitamin B6, pyridoxine hydrochloride] | – | – | – | like the composition better | Patients for whom the composition definitely worked better than the remedy/remedies tried in addition (in vivo): better for 7 patients; Percent of Patients for whom the Composition Did Not Work as Well (in vivo): 11% |
| Cc1nccn1CC1CCc2c(c3ccccc3n2C)C1=O (stereo not drawn) [Zofran ®, ondansetron hydrochloride] | – | 36 | better for 5 patients | prefer | Percent of Patients for whom the Composition Did Not Work as Well [3]: 42%; Percent of Patients for whom the Composition Did Not Work as Well (composition versus the named remedy, the two taken alone or with other remedies, listed as Zofran®, hydrochloride): at least 36% |
